Test results taken from patent US20030013638A1, “P27 prevents cellular migration” (priority 2001, published 2003).

Assays:
[1] = test system: wild type murine SMC; test: SMC migration assay, modified Boyden chamber, bFGF-induced; assay type: cell-based, mouse
Description: (§1) Cell Culture: The murine aortic SMCs were obtained from the explant migration experiments described below, and were subcultured in DMEM containing 20% fetal bovine serum (FBS) at 37° C. in a humidified 95% air-5% CO2 atmosphere (Kobayashi et al., 1993). The growth medium was changed every other day until 80% confluence was reached. The cells used for experiments were from passages #3-6. Verification of SMC phenotype was determined by positive fluorescent staining for α-actin and negative staining for Factor VIII antigen. Cell viability was 95% or greater as determined by trypan blue exclusion at the conclusion of each experiment.
SMC migration assay: Migration was measured using a 48 well modified Boyden chamber housing a polycarbonate filter with 8 μm pores as described previously (Bornfeldt et al., 1994; Poon et al., 1996). Each membrane was coated with 0.1 mg/ml of collagen in 0.2 M acetic acid for 24 hours before each assay. For each assay, 50 ng/ml of bFGF in DMEM was loaded in quadruplicate wells in the bottom chamber. BSA (0.2% in DMEM without bFGF) was used as a negative control. […] An equal number of cells (2×10^5/ml) in 50 μl was loaded to the top chamber of each well. After 6 hours, non-migrating cells were scraped from the upper surface of the filter. Cells on the lower surface were fixed with methanol and stained with Giemsa stain (Fisher Scientific, N.Y.) . The number of SMC on the lower surface of the filter was determined by counting four high power (X200) fields of constant area per well. Values are expressed as the percentage of cells migrating in response to bFGF after subtraction of the negative control (DMEM+BSA). Experiments were performed at least twice using quadruplicate wells.

[2] = test system: p27 (−/−) SMC; test: as above; assay type: cell-based, mouse
Description: as §1
SMC migration assay: Migration was measured using a 48 well modified Boyden chamber housing a polycarbonate filter with 8 μm pores as described previously (Bornfeldt et al., 1994; Poon et al., 1996). Each membrane was coated with 0.1 mg/ml of collagen in 0.2 M acetic acid for 24 hours before each assay. For each assay, 50 ng/ml of bFGF in DMEM was loaded in quadruplicate wells in the bottom chamber. BSA (0.2% in DMEM without bFGF) was used as a negative control. Rapamycin, FK506 or C3 exoenzyme was directly added to the growth medium for either 48 hours (rapamycin and FK506) or 16 hours (C3 exoenzyme) before the cells were trypsinized, and counted with a hemacytometer. An equal number of cells (2×10^5/ml) in 50 μl was loaded to the top chamber of each well. After 6 hours, non-migrating cells were scraped from the upper surface of the filter. Cells on the lower surface were fixed with methanol and stained with Giemsa stain (Fisher Scientific, N.Y.) . The number of SMC on the lower surface of the filter was determined by counting four high power (X200) fields of constant area per well. Values are expressed as the percentage of cells migrating in response to bFGF after subtraction of the negative control (DMEM+BSA). Experiments were performed at least twice using quadruplicate wells.

[3] = test system: aortic SMC of wild type C57BL/6 mice; test: Aortic SMC explant migration after in vivo treatment; parameters: species or system mouse
Description: (§2) Aortic SMC explant migration: Wild type C57BL/6 mice were purchased from Jackson Laboratory (Bar Harbor, Me.). The p27 (+/−) and p27 (−/−) knockout mice were kindly provided by Dr. Andrew Koff of Memorial Sloan-Kettering Cancer Institute (Kiyokawa et al., 1996). […] The control group was treated with vehicle alone (0.2% sodium CMC, polysorbate 0.25%; Sigma, St. Louis, Mo.). At the conclusion of the treatment protocol, the mice were euthanized with 100 mg/kg of pentobarbital, the aortas excised and the adventitia and surrounding connective tissue were removed. The aortas were then opened by a longitudinal cut and the intima, as well as a thin portion of the subjacent media, were removed. The media were divided into 2 mm×2 mm pieces and placed in 6 well tissue culture plates (35 mm, 22.6 mm diameter, Costar, Cambridge, Mass.) containing DMEM with 20% FBS. The culture media was changed every other day. The migration of SMC out of the explant was observed under the microscope daily following explant. The total number of cells explanted was determined for each animal's explants on a daily basis. The results in FIG. 5 are presented as the mean percentage (±SD) of inhibition of migration (by rapamycin or taxol) as compared to control (untreated) for at least 4 animals from each group. The SMC phenotype was confirmed as previously described (Spector et al., 1997).

[4] = test system: aortic SMC of p27 (+/−) mice; test: as above; parameters: species or system mouse; conditions: 4 mg/kg/day for 5 days IP, p<0.05
Description: Aortic SMC explant migration: Wild type C57BL/6 mice were purchased from Jackson Laboratory (Bar Harbor, Me.). The p27 (+/−) and p27 (−/−) knockout mice were kindly provided by Dr. Andrew Koff of Memorial Sloan-Kettering Cancer Institute (Kiyokawa et al., 1996). The mice received one of three different treatment protocols (9 mg/kg/day for 7 days, 4 mg/kg/day for 5 days, or 2 mg/kg/day for 2 days) of rapamycin via intraperitoneal (IP) injection. The control group was treated with vehicle alone (0.2% sodium CMC, polysorbate 0.25%; Sigma, St. Louis, Mo.). At the conclusion of the treatment protocol, the mice were euthanized with 100 mg/kg of pentobarbital, the aortas excised and the adventitia and surrounding connective tissue were removed. The aortas were then opened by a longitudinal cut and the intima, as well as a thin portion of the subjacent media, were removed. The media were divided into 2 mm×2 mm pieces and placed in 6 well tissue culture plates (35 mm, 22.6 mm diameter, Costar, Cambridge, Mass.) containing DMEM with 20% FBS. The culture media was changed every other day. The migration of SMC out of the explant was observed under the microscope daily following explant. The total number of cells explanted was determined for each animal's explants on a daily basis. […]

[5] = test system: SMC obtained from wild type and p27 (−/−) animals; test: Cell viability (trypan blue exclusion) and morphology of SMC; assay type: cell-based, mouse
Description: as §1

[6] = test system: aortic SMC of p27 (−/−) knockout mice; test: Aortic SMC explant migration after in vivo treatment; parameters: species or system mouse; conditions: 20 mg/kg/day for 7 days
Description: as §2

With `C=CC[C@@H]1/C=C(\C)C[C@H](C)C[C@H](OC)[C@H]2O[C@@](O)(C(=O)C(=O)N3CCCC[C@H]3C(=O)O[C@H](/C(C)=C/[C@@H]3CC[C@@H](O)[C@H](OC)C3)[C@H](C)[C@@H](O)CC1=O)[C@H](C)C[C@@H]2OC` [FK506] as the compound, how does the “effect on murine SMC migration (FIG. 1A)” value ([1]; wild type SMC, 48 hours) read?
Its value is “no effect”.

What about the “effect on murine SMC migration (FIG. 1B)” value ([2]; p27 (−/−) SMC, 48 hours) of the same compound?
Its value is “no effect”.

`CO[C@H]1C[C@@H]2CC[C@@H](C)[C@@](O)(O2)C(=O)C(=O)N2CCCC[C@H]2C(=O)O[C@H]([C@H](C)C[C@@H]2CC[C@@H](O)[C@H](OC)C2)CC(=O)[C@H](C)/C=C(\C)[C@@H](O)[C@@H](OC)C(=O)[C@H](C)C[C@H](C)/C=C/C=C/C=C/1C` [rapamycin] was tested. Which IC50 ([1]; Mus musculus, wild type murine SMC, treatment for 48 hours, read-out: IC50, inhibition of bFGF-induced SMC migration) did it give?
Its IC50 is roughly 2 nM.

What about the “effect on SMC migration of addition immediately prior to incubation” value ([1]; added to upper or lower chamber immediately prior to incubation, genotype not stated) of the same compound?
Its value is “no effect”.

And the inhibition at 0.1 µM ([2]; Mus musculus, p27 (−/−) SMC, 100 nM, 48 hours)?
Its inhibition at 0.1 µM is roughly 35%.

And the IC50 ([2]; Mus musculus, p27 (−/−) cells, treatment for 48 hours, read-out: IC50, inhibition of bFGF-induced SMC migration)?
Its IC50 is roughly 200 nM.

What about the inhibition of migration ([2]; p27 (−/−) SMC, 1 nM to 10 nM, 48 hours) of the same compound?
Its inhibition of migration is “no significant inhibition”.

And the “increased IC50 in p27 (−/−) cells as compared to wild type SMC” value ([2]; p27 (−/−) vs wild type SMC)?
The value was 100 fold.

What about the “inhibition of explant migration as compared to untreated animals” value ([3]; wild type, 4 mg/kg/day for 5 days IP, p<0.05) of the same compound?
Its value is roughly 85%.

What about the “inhibition of explant migration as compared to untreated animals” value [4] of the same compound?
Its value is roughly 85%.

And the “cell viability, treated vs untreated” value [5]?
The value was “no differences”.

Which “difference in inhibition of explant migration between wild type and p27 (−/−) animals” value [6] does the source give for `CC(=O)O[C@H]1C(=O)[C@@]2(C)[C@H]([C@H](OC(=O)c3ccccc3)[C@]3(O)C[C@H](OC(=O)[C@H](O)[C@@H](NC(=O)c4ccccc4)c4ccccc4)C(C)=C1C3(C)C)[C@]1(OC(C)=O)CO[C@@H]1C[C@@H]2O` [taxol, paclitaxel] here?
The value was “No differences”.

What about the “inhibition of explant migration (FIG. 3C)” value ([6]; p27 (−/−)) of the same compound?
The value was “inhibited migration”.

What about the “inhibition of explant migration (FIG. 3C)” value ([3]; p27 (+/+), 20 mg/kg/day for 7 days) of the same compound?
The value was “inhibited migration”.
